Data: patent US11339446B2, “Biomarker for measurement of response and prognosis of triple-negative breast cancer to anticancer agent” (SEOUL NATIONAL UNIVERSITY R&DB FOUNDATION, priority 2017, dated 2022)

Experiments:
Type in all cases: cell-based
MDA-MB-468 cell line = experiment: CellTiter-Glo cell viability assay after docetaxel, MDA-MB-468
Method: (§1) MDA-MB-231, DU4475, MDA-MB-436, and MDA-MB-157 cell lines were purchased from the ATCC. MDA-MB-468, HCC1937, HS578T, and HCC38 cell lines were obtained from the Korea Cell Bank. MDA-MB-157 cell line was cultured in a Leibovitz's L15 culture medium supplemented with 10% fetal bovine serum. The MDA-MB-436 cell line was cultured in a Leibovitz's L15 culture medium supplemented with 10% fetal bovine serum and 0.026 units/ml units insulin. The MDA-MB-231 cell line, the MDA-MB-468 cell line, and the HS578T cell line were each cultured in a DMEM culture medium supplemented with 10% fetal bovine serum in 5% CO2. The remaining cell lines were each cultured in a RPMI-1640 culture medium supplemented with 10% fetal bovine serum in 5% CO2.
(§2) In the present disclosure, docetaxel was used to find genes related to resistance to taxane-based neoadjuvant chemotherapy (NAC). Docetaxel was purchased at Sigma-Aldrich, and then, dissolved according to the instructions of the manufacturer. The cell lines were collected using trypsin treatment, counted with a hemocytometer, and plated for 14 hours at a density of 3,000 cells/well in a 96-well plate. Afterwards, the solvent was replaced with docetaxel at different concentrations (e.g., 0 nM, 0.01 nM, 0.1 nM, 1 nM, 10 nM, and 100 nM), 48 hours after exposure to docetaxel, cell viability experiments were performed using the CellTiter-Glo Luminescent Cell Viability Assay according to the protocol of the manufacture. The CellTiter-Glo Luminescent Cell Viability Assay is a method of determining the number of cells present in a culture medium depending on the amount of ATP in a culture medium. In summary, the same amount of 100 μl of CellTiter-Glo assay reagents were added to each well, incubated for 10 minutes at room temperature, and then, measured according to the luminometry. The experiment was repeated twice, and the 50% inhibitory concentration of each cell line was measured by non-linear regression analysis.

HS578T cell line = experiment: CellTiter-Glo cell viability assay after docetaxel, HS578T
Method: as §1, §2

DU4475 cell line = experiment: CellTiter-Glo cell viability assay after docetaxel, DU4475
Method: as §1, §2

MDA-MB-231 cell line = experiment: CellTiter-Glo cell viability assay after docetaxel, MDA-MB-231
Method: as §1, §2

HCC38 cell line = experiment: CellTiter-Glo cell viability assay after docetaxel, HCC38
Method: as §1, §2

MDA-MB-157 cell line = experiment: CellTiter-Glo cell viability assay after docetaxel, MDA-MB-157; details: MDA-MB-15T
Method: as §1, §2

HCC1937 cell line = experiment: CellTiter-Glo cell viability assay after docetaxel, HCC1937
Method: as §1, §2

MDA-MB-436 cell line = experiment: CellTiter-Glo cell viability assay after docetaxel, MDA-MB-436
Method: as §1, §2

IC50 (MDA-MB-468 cell line; Homo sapiens, MDA-MB-468, 48 hours exposure): 1.81 nM | IC50 (MDA-MB-231 cell line; Homo sapiens, MDA-MB-231, 48 hours exposure): 29.1 nM | IC50 (HCC38 cell line; Homo sapiens, HCC38, 48 hours exposure): > 100 nM | IC50 (MDA-MB-157 cell line; Homo sapiens, MDA-MB-157, 48 hours exposure): > 100 nM | IC50 (HCC1937 cell line; Homo sapiens, HCC1937, 48 hours exposure): > 100 nM | IC50 (MDA-MB-436 cell line; Homo sapiens, MDA-MB-436, 48 hours exposure): > 100 nM
Structure (SMILES): CC(=O)O[C@@]12CO[C@@H]1C[C@H](O)[C@@]1(C)C(=O)[C@H](O)C3=C(C)[C@@H](OC(=O)[C@H](O)[C@@H](NC(=O)OC(C)(C)C)c4ccccc4)C[C@@](O)([C@@H](OC(=O)c4ccccc4)[C@H]21)C3(C)C [Docetaxel, docetaxel]
Survival fraction (MDA-MB-468 cell line; MDA-MB-468, 50 nM): 0.27 | Survival fraction (MDA-MB-468 cell line; MDA-MB-468, 100 nM): 0.26 | Survival fraction (HS578T cell line; 50 nM): 0.32 | Survival fraction (HS578T cell line; 100 nM): 0.29 | IC50 (HS578T cell line; Homo sapiens, Hs-578T, 48 hours exposure): 11.1 nM | Survival fraction (DU4475 cell line; DU4475, 50 nM): 0.37 | Survival fraction (DU4475 cell line; DU4475, 100 nM): 0.27 | IC50 (DU4475 cell line; Homo sapiens, DU-4475, DU4475, 48 hours exposure): 11.6 nM | Survival fraction (MDA-MB-231 cell line; MDA-MB-231, 50 nM): 0.47 | Survival fraction (MDA-MB-231 cell line; MDA-MB-231, 100 nM): 0.35 | Survival fraction (HCC38 cell line; HCC38, 50 nM): 0.57 | Survival fraction (HCC38 cell line; HCC38, 100 nM): 0.53 | Survival fraction (MDA-MB-157 cell line; 50 nM): 0.65 | Survival fraction (MDA-MB-157 cell line; 100 nM): 0.65 | Survival fraction (HCC1937 cell line; HCC1937, 50 nM): 0.76 | Survival fraction (HCC1937 cell line; HCC1937, 100 nM): 0.70 | Survival fraction (MDA-MB-436 cell line; MDA-MB-436, 50 nM): 0.81 | Survival fraction (MDA-MB-436 cell line; MDA-MB-436, 100 nM): 0.75
